Results from patent publication US20250353820A1, “ANTIVIRAL PYRAZOLOPYRIDINONE COMPOUNDS” (Novartis AG, priority 2019, published 2025).
Where two headings read alike, the source gives them in different places.

Assays:
[1] = target: human CMV DNA polymerase UL54 (Human cytomegalovirus (strain AD169) (HHV-5) (Human herpesvirus 5), UniProt P08546); assay: biochemical
[2] = target: human HSV DNA polymerase UL30 (Human herpesvirus 1 (strain 17) (HHV-1) (Human herpes simplex virus 1), UniProt P04293); assay: biochemical; conditions: 20 minutes at room temperature
[3] = test system: Luciferase-encoding HCMV (AD169 strain); assay: microbe, parasite or virus in culture; type: cell-based
VZV Ellen strain = assay: VZV qPCR assay; conditions: Human alphaherpesvirus 3, MRC5, 48 h, read-out: Cellular activity against VZV (EC50)
[4] = test system: EBV (SNU-719 gastric carcinoma cell line latently infected); assay: EBV qPCR assay; conditions: human gammaherpesvirus 4, 72 h, read-out: Cellular activity against EBV (EC50)
[5] = test system: KOS strain of HSV-1 virus; assay: HSV-1 qPCR assay; conditions: read-out: Cellular activity against HSV-1 (EC50)
[6] = test system: HCMV-Rluc virus (AD169 pp28-hRluc rUL131); assay: CMV Luciferase Assay of Compounds 243-262 in ARPE-19 cells; type: cell-based; conditions: Human betaherpesvirus 5, AD169, ARPE-19, 72 h, read-out: CMV-Luc Cellular EC50 in ARPE-19
Procedure: The assay uses a Luciferase-encoding HCMV. Luciferase is expressed under the control of a late viral gene (pp28) promoter in the AD169 strain, so that expression of the reporter is dependent on viral DNA replication. Compounds that affect any stage from viral entry to DNA replication result in a change in luciferase levels.
Compounds 243-262 were tested in a luminescence assay as follows.
ARPE-19 cells were maintained in growth medium (DMEM/F12 Glutamax+10 fetal bovine serum (FBS)+PenStrep) and, before reaching full confluence, were transferred to a centrifuge tube and spun for 5 minutes at 1000 rpm. The cells were resuspended in assay medium (DMEM/F12 Glutamax+2% FBS+PenStrep) and counted. Cell density was adjusted to one million cells per milliliter and infected with HCMV-Rluc virus (AD169 pp28-hRluc rUL131; MOI 0.6) in a 50 ml conical tube for 2 hours while shaking. After dilution of the infectious suspension ten-fold (to 100,000 cells per milliliter), 8000 cells are directly plated in 384-well plates pre-spotted with the compound to be tested. The cells were incubated for 72 hours at 37 degrees Celsius. Cells were then placed at room temperature and allowed to equilibrate for 20 minutes before addition of the Renilla-Glo (Promega) reagent. After a 10-minute incubation at room temperature, luminescence was measured on a microplate reader.

[7] = HSV-polymerase Biochemical IC50, 625 pM HSV polymerase
[8] = 100 pM CMV polymerase, 60 minutes at room temperature, read-out: CMV-polymerase Biochemical IC50
[9] = 625 pM HSV polymerase, read-out: HSV-polymerase Biochemical IC50
[10] = Human betaherpesvirus 5, AD169, 72 h, read-out: CMV-Luc Cellular EC50, NN-NHDF cells, MOI of 1, 72 hrs
[11] = read-out: CMV-Luc Cellular EC50, NN-NHDF cells, MOI of 1, 72 hrs

SMILES	IC50 [1, 8]	IC50 [2, 9]	EC50 [3, 11]	also measured
CC(N)COCC(C)(C)S(=O)(=O)C1(CN2CCc3c(C(=O)NCc4ccc(Cl)cc4)nn(C)c3C2=O)CC1 (single isomer, unassigned) [Example 97]				IC50 [1]: 1 nM; IC50 [2, 7]: 23 nM
CC(N)COCC(C)(C)S(=O)(=O)C1(CN2CCc3c(C(=O)NCc4ccc(Cl)cc4)nn(C)c3C2=O)CC1 (single isomer, unassigned) [Example 98]				IC50 ([1]; read-out: CMV-polymerase Biochemical IC50, 100 pM CMV polymerase, 60 minutes at room temperature): 1 nM; IC50 [2, 7]: 26 nM
CC(N)COCC(C)(C)S(=O)(=O)C1(CN2CCc3c(C(=O)NCc4ccc(C#N)cc4)nn(C)c3C2=O)CC1 (single isomer, unassigned) [Example 99]				IC50 [1]: 4 nM; IC50 [2, 7]: 63 nM
CC(N)COCC(C)(C)S(=O)(=O)C1(CN2CCc3c(C(=O)NCc4ccc(C#N)cc4)nn(C)c3C2=O)CC1 (single isomer, unassigned) [Example 100, (R)- or (S)-6-((1-((1-(2-Aminopropoxy)-2-methylpropan-2-yl)sulfonyl)cyclopropyl)methyl)-N-(4-cyanobenzyl)-1-methyl-7-oxo-4,5,6,7-tetrahydro-1H-pyrazolo[3,4-c]pyridine-3-carboxamide]	4 nM	60 nM		EC50 [3, 10]: 13 nM
Cn1nc(C(=O)NCc2ccc(C#N)cc2)c2c1C(=O)N(CC1(S(=O)(=O)C3CCOC3)CC1)CC2 (single isomer, unassigned) [Example 170]	4 nM	122 nM		
Cn1nc(C(=O)NCc2ccc(C#N)cc2)c2c1C(=O)N(CC1(S(=O)(=O)C3CCOC3)CC1)CC2 (single isomer, unassigned) [Example 171]	3 nM	78 nM	104 nM	
Cn1nc(C(=O)NCc2ccc(C#N)cc2)c2c1C(=O)N(CC1(S(=O)(=O)C(C)(CN)CO)CC1)CC2 (single isomer, unassigned) [Example 184]	4 nM	52 nM		
Cn1nc(C(=O)NCc2ccc(C#N)cc2)c2c1C(=O)N(CC1(S(=O)(=O)C(C)(CN)CO)CC1)CC2 (single isomer, unassigned) [Example 185]	4 nM	59 nM	275 nM	
Cn1nc(C(=O)NCc2ccc(C#N)cc2)c2c1C(=O)N(CC1(S(=O)(=O)C3(C(O)CO)CC3)CC1)CC2 (single isomer, unassigned) [Example 195, (R)- or (S)—N-(4-Cyanobenzyl)-6-((1-((1-(1,2-dihydroxyethyl)cyclopropyl)sulfonyl)cyclopropyl)methyl)-1-methyl-7-oxo-4,5,6,7-tetrahydro-1H-pyrazolo[3,4-c]pyridine-3-carboxamide]	1 nM		53 nM	
Cn1nc(C(=O)NCc2ccc(Cl)cc2)c2c1C(=O)N(CC1(S(=O)(=O)C3(C(O)CO)CC3)CC1)CC2 (single isomer, unassigned) [Example 196]	1 nM	19 nM		EC50 [3, 10]: 19 nM
Cn1nc(C(=O)NCc2ccc(Cl)cc2)c2c1C(=O)N(CC1(S(=O)(=O)C3(C(O)CO)CC3)CC1)CC2 (single isomer, unassigned) [Example 197]	1 nM		20 nM	
Cn1nc(C(=O)NCc2ccc(C#N)cc2)c2c1C(=O)N(CC1(S(=O)(=O)C(C)(C)C(O)CN)CC1)CC2 (single isomer, unassigned) [Example 199]	1 nM	28 nM		EC50 (VZV Ellen strain): 127 nM; EC50 [4]: 11 nM; EC50 ([5]; Human alphaherpesvirus 1, 24 h): 30 nM
Cn1nc(C(=O)NCc2ccc(Cl)cc2)c2c1C(=O)N(CC1(S(=O)(=O)C(C)(C)C(O)CN)CC1)CC2 (single isomer, unassigned) [Example 200]	1 nM	14 nM		
Cn1nc(C(=O)NCc2ccc(Cl)cc2)c2c1C(=O)N(CC1(S(=O)(=O)C(C)(C)C(O)CN)CC1)CC2 (single isomer, unassigned) [Example 201]	1 nM	15 nM	6 nM	EC50 ([3]; read-out: Cellular activity against CMV (EC50), Table 18, CMV): 6 nM; EC50 ([5]; NN-NHDF cells, MOI of 0.01, 24 hrs, qPCR): 18 nM
CNCC(O)C(C)(C)S(=O)(=O)C1(CN2CCc3c(C(=O)NCc4ccc(C#N)cc4)nn(C)c3C2=O)CC1 (single isomer, unassigned) [Example 202]	2 nM	30 nM		
CNCC(O)C(C)(C)S(=O)(=O)C1(CN2CCc3c(C(=O)NCc4ccc(C#N)cc4)nn(C)c3C2=O)CC1 (single isomer, unassigned) [Example 203]	2 nM	38 nM	19 nM	
CNCC(O)C(C)(C)S(=O)(=O)C1(CN2CCc3c(C(=O)NCc4ccc(Cl)cc4)nn(C)c3C2=O)CC1 (single isomer, unassigned) [Example 204]	3 nM	37 nM		
CNCC(O)C(C)(C)S(=O)(=O)C1(CN2CCc3c(C(=O)NCc4ccc(Cl)cc4)nn(C)c3C2=O)CC1 (single isomer, unassigned) [Example 205]	2 nM	29 nM	9 nM	
CN(C)CC(O)C(C)(C)S(=O)(=O)C1(CN2CCc3c(C(=O)NCc4ccc(Cl)cc4)nn(C)c3C2=O)CC1 (single isomer, unassigned) [Example 206]	21 nM	74 nM		
CN(C)CC(O)C(C)(C)S(=O)(=O)C1(CN2CCc3c(C(=O)NCc4ccc(Cl)cc4)nn(C)c3C2=O)CC1 (single isomer, unassigned) [Example 207]	23 nM	88 nM	50 nM	
N#Cc1ccc(CNC(=O)c2n[nH]c3c2CCN(CC2(S(=O)(=O)C4CC4)CC2)C3=O)cc1 [Example 45, N-(4-Cyanobenzyl)-6-((1-(cyclopropylsulfonyl)cyclopropyl)methyl)-7-oxo-4,5,6,7-tetrahydro-1H-pyrazolo[3,4-c]pyridine-3-carboxamide]	6 nM	169 nM		EC50 [3, 10]: 146 nM
Cn1nc(C(=O)NCc2ccc(C#N)cc2)c2c1C(=O)N(CC1(S(=O)(=O)C(C)(C)COCCO)CC1)CC2 [Example 87, N-(4-Cyanobenzyl)-6-((1-((1-(2-hydroxyethoxy)-2-methylpropan-2-yl)sulfonyl)cyclopropyl)methyl)-1-methyl-7-oxo-4,5,6,7-tetrahydro-1H-pyrazolo[3,4-c]pyridine-3-carboxamide]	1 nM	32 nM		EC50 [3, 10]: 44 nM
CC(C)[C@@H](NS(=O)(=O)C1(CN2CCc3c(C(=O)NCc4ccc(Cl)cc4)nn(C)c3C2=O)CC1)C(=O)O [Example 215, ((1-((3-((4-Chlorobenzyl)carbamoyl)-1-methyl-7-oxo-1,4,5,7-tetrahydro-6H-pyrazolo[3,4-c]pyridin-6-yl)methyl)cyclopropyl)sulfonyl)-D-valine]	1 nM	28 nM		EC50 ([3]; NN-NHDF cells, MOI of 1, 72 hrs, read-out: CMV-Luc Cellular EC50): 1900 nM
Cn1nc(C(=O)NCc2ccc(C#N)cc2)c2c1C(=O)N(CC1(S(=O)(=O)C(C)(C)C(O)CO)CC1)CC2 (stereo not drawn) [Example 252, N-(4-cyanobenzyl)-6-((1-((3,4-dihydroxy-2-methylbutan-2-yl)sulfonyl)cyclopropyl)methyl)-1-methyl-7-oxo-4,5,6,7-tetrahydro-1H-pyrazolo[3,4-c]pyridine-3-carboxamide]				EC50 [6]: 21.9 nM
